Counter-ions that a name gives are not always drawn.
Target: T1, VLA-4 integrins on human U937 cells (interaction between VCAM-1 and VLA-4) (Homo sapiens, UniProt P05556+P13612)
T1 construct: the VLA-4 integrins, are offered in their natural form as surface molecules on human U937 cells; host or cells: U937 cells (VLA-4, endogenous); the partner hVCAM-1(1-3)-IgG came from the supernatant of transfected COS cells (ATCC CRL1651)
Assay: U937/VCAM-1 cell adhesion test (adhesion of U937 cells to hVCAM-1(1-3)-IgG)
Assay type: cell-based
Details: concentration leading to 50% inhibition of adhesion
Text: As a test method for the activity of the compounds of the formula I on the interaction between VCAM-1 and VLA-4, an assay which is specific for this interaction is used. The cellular binding components, i.e. the VLA-4 integrins, are offered in their natural form as surface molecules on human U937 cells (ATCC CRL 1593) which belong to the group of leucocytes. As specific binding components, recombinant soluble fusion proteins prepared by genetic engineering and consisting of the extracytoplasmic domains of human VCAM-1 and the constant region of a human immunoglobulin of the subclass IgG1 are used.
Assay for the Measurement of the Adhesion of U937 Cells (ATCC CRL 1593) to hVCAM-1 (1-3)-IgG
1. Preparation of Human VCAM-1(1-3)-IgG and Human CD4-IgG
A genetic construct for the expression of the extracellular domains of human VCAM-1 was employed, associated with the genetic sequence of the heavy chain of human immunoglobulin IgG1 (hinge, CH2 and CH3 regions), from Dr. Brian Seed, Massachusetts General Hospital, Boston, USA. The soluble fusion protein hVCAM-1(1-3)-IgG contained the three amino-terminal extracellular immunoglobulin-like domains of human VCAM-1 (Damle and Aruffo, Proc. Natl. Acad. Sci. USA 1991, 88, 6403). CD4-IgG (Zettlmeissl et al, DNA and Cell Biology 1990, 9, 347) served as a fusion protein for negative controls. The recombinant proteins were expressed as soluble proteins after DEAE/dextran-mediated DNA-transfection in COS cells (ATCC CRL1651) according to standard procedures (Ausubel et al., Current protocols in molecular biology, John Wiley & Sons, Inc., 1994).
2. Assay for Measurement of the Adhesion of U937 Cells to hVCAM-1(1-3)-IgG
2.1 96-well microtiter test plates (Nunc Maxisorb) were incubated at room temperature for 1 hour with 100 μl/well of a goat-anti-human IgG antibody solution (10 μg/ml in 50 mM tris, pH 9.5). After removing the antibody solution, washing was carried out once with PBS.
2.2 150 μl/well of a blocking buffer (1% BSA in PBS) were incubated on the plates at room temperature for 0.5 hours. After removing the blocking buffer, washing was carried out once with PBS.
2.3 100 μl per well of a cell culture supernatant of transfected COS cells were incubated on the plates at room temperature for 1.5 hours. The COS cells were transfected with a plasmid which codes for the three N-terminal immunoglobulin-like domains of VCAM-1, coupled to the Fc part of human IgG1 (hVCAM-1(1-3)-IgG). The content of hVCAM-1 (1-3)-IgG was about […]. After removing the culture supernatant, washing was carried out once with PBS.
2.4 The plates were incubated at room temperature for 20 minutes with […] of Fc receptor blocking buffer (1 mg/ml of γ-globulin, 100 mM NaCl, 100 μM MgCl2, 100 μM MnCl2, 100 μM CaCl2, 1 mg/ml BSA in 50 mM HEPES, pH 7.5). After removing the Fc receptor blocking buffer, washing was carried out once with PBS.
2.5 20 μl of binding buffer (100 mM NaCl, 100 μM MgCl2, 100 μM MgCl2, 100 μM CaCl2, 1 mg/ml BSA in 50 mM HEPES, pH 7.5), were initially introduced, the substances to be tested were added in 10 μl of binding buffer and the mixture was incubated for 20 minutes. As controls, antibodies against VCAM-1 (BBT, No. BBA6) and against VLA-4
(Immunotech, No. 0764) were used.
2.6 U937 cells were incubated in Fc receptor blocking buffer for 20 minutes and then pipetted in at a concentration of 1×10^6/ml and in an amount of 100 μl per well ([…]).
2.7 The plates were slowly immersed at an angle of 45° in stop buffer (100 mM NaCl, 100 μM MgCl2, 100 μM MnCl2, 100 μM CaCl2 in 25 mM Tris, pH 7.5) and shaken off. The process was repeated.
2.8 50 μl/well of a dye solution (16.7 μg/ml of Hoechst dye 33258, 4% formaldehyde, 0.5% Triton X-100 in PBS) were then incubated on the plates for 15 minutes.
2.9 The plates were shaken off and slowly immersed at an angle of 45° in stop buffer (100 mM NaCl, 100 μM MgCl2, 100 μM MnCl2, 100 μM CaCl2 in 25 mM Tris, pH 7.5). The process was repeated. […]

T1 sequence (P13612 34-1032): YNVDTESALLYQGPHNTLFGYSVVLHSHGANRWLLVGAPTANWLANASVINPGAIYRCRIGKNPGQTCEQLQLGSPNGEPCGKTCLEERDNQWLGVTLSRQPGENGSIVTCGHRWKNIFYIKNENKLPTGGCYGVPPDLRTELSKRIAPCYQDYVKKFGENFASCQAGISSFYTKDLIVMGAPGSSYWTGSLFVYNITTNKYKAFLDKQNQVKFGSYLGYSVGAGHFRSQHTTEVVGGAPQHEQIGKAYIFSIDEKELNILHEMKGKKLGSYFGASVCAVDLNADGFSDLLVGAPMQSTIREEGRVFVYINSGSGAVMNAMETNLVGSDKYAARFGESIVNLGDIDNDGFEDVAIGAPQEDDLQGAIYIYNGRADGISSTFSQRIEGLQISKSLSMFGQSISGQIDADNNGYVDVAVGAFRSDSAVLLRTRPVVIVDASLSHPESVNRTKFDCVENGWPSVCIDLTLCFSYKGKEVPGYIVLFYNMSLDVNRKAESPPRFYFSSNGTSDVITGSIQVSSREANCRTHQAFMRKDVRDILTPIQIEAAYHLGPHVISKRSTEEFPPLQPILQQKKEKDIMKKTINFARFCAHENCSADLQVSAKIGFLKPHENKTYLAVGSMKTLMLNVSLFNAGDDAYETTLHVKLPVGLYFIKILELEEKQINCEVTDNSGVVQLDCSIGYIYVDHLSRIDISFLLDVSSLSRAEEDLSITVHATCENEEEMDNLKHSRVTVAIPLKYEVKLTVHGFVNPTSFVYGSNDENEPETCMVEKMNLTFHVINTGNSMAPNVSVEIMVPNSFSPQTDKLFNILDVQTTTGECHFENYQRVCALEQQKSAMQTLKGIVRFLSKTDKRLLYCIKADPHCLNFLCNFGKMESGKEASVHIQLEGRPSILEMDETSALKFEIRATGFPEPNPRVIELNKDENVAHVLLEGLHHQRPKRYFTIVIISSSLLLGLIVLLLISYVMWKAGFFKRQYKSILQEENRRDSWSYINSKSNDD
T1 sequence (P05556 21-798): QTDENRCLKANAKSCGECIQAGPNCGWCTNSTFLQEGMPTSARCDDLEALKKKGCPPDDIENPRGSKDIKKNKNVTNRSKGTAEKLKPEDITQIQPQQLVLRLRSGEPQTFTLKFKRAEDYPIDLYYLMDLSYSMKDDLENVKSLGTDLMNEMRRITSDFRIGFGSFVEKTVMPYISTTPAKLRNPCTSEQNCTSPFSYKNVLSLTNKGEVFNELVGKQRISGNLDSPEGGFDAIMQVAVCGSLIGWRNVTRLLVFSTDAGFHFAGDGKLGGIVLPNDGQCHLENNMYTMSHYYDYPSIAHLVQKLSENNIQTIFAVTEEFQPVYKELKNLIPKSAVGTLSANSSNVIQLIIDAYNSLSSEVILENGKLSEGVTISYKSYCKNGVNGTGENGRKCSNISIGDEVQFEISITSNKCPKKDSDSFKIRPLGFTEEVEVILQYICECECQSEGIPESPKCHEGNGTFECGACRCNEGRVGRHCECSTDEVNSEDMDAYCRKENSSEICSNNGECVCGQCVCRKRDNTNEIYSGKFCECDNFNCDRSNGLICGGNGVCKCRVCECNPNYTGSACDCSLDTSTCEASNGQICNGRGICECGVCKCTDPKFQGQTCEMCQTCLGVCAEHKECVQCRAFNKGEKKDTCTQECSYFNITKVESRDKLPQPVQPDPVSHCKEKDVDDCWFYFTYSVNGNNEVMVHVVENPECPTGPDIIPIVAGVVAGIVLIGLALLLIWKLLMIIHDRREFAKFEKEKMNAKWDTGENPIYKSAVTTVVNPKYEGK

SMILES | IC50
CCN1C(=O)N(CC(=O)N[C@@H](CC(=O)O)C(=O)N[C@H](C(=O)O)c2ccccc2)C(=O)[C@@H]1CCCN [Example 35, ((S)-4-(3-Aminopropyl)-3-ethyl-2,5-dioxoimidazolidin-1-yl)acetyl-L-aspartyl-L-phenylglycine] | 250 µM
CCN1C(=O)N(CC(=O)N[C@@H](CC(=O)O)C(=O)N[C@@H](C(=O)O)c2ccccc2)C(=O)[C@@H]1CCCNC(=N)N [Example 36, ((S)-4-(3-Guanidinopropyl)-3-ethyl-2,5-dioxoimidazolidin-1-yl)acetyl-L-aspartyl-D-phenylglycine] | 250 µM
CC1(c2ccc(C(=N)N)cc2)C(=O)N(CC(=O)N[C@@H](CC(=O)O)C(=O)N[C@H](C(=O)O)c2ccccc2)C(=O)N1Cc1ccccc1-c1ccccc1 (mixture of isomers) [Example 11, ((R,S)-4-(4-(Amino-imino-methyl)phenyl)-3-((2-biphenylyl)methyl)-4-methyl-2,5-dioxoimidazolidin-1-yl)acetyl-L-aspartyl-L-phenylglycine] | 62 µM
NCCC[C@H]1C(=O)N(CC(=O)N[C@@H](CC(=O)O)C(=O)N[C@H](C(=O)O)c2ccccc2)C(=O)N1Cc1ccccc1 [Example 37, ((S)-4-(3-Aminopropyl)-3-benzyl-2,5-dioxoimidazolidin-1-yl)acetyl-L-aspartyl-L-phenylglycine] | 200 µM
CC1(c2ccc(C(=N)N)cc2)C(=O)N(CC(=O)NCCC(=O)O)C(=O)N1Cc1ccccc1 (racemic) [Example 34, 3-(((R,S)-4-(4-(Amino-imino-methyl)phenyl)-3-benzyl-4-methyl-2,5-dioxoimidazolidin-1-yl)acetylamino)propionic acid hydrochloride] | 175 µM
Cc1c(C)c(C)c(CN2C(=O)N(CC(=O)N[C@@H](CC(=O)O)C(=O)N[C@H](C(=O)O)c3ccccc3)C(=O)C2(C)c2ccc(C(=N)N)cc2)c(C)c1C (mixture of isomers) [Example 17, ((R,S)-4-(4-(Amino-imino-methyl)phenyl)-3-(pentamethylbenzyl)-4-methyl-2,5-dioxoimidazolidin-1-yl)acetyl-L-aspartyl-L-phenylglycine] | 79 µM
CC1(Cc2ccc(NC(=N)N)cc2)C(=O)N(CC(=O)N[C@@H](CC(=O)O)C(=O)N[C@H](C(=O)O)c2ccccc2)C(=O)N1Cc1ccccc1 (stereo partly drawn) [Example 73, ((R,S)-4-(4-Guanidinobenzyl)-3-benzyl-4-methyl-2,5-dioxoimidazolidin-1-yl)acetyl-L-aspartyl-L-phenylglycine] | 125 µM
CC1(c2ccc(C(=N)N)cc2)C(=O)N(CC(=O)N[C@@H](CC(=O)O)C(=O)N[C@H](C(=O)O)c2ccccc2)C(=O)N1Cc1c(F)c(F)c(F)c(F)c1F (mixture of isomers) [Example 6, ((R,S)-4-(4-(Amino-imino-methyl)phenyl)-3-(2,3,4,5,6-pentafluorobenzyl)-4-methyl-2,5-dioxoimidazolidin-1-yl)acetyl-L-aspartyl-L-phenylglycine] | 65 µM

Molecules with a lower IC50, results first:

IC50 | SMILES
47 µM | CC1(c2ccc(C(=N)N)cc2)C(=O)N(CC(=O)N[C@@H](CC(=O)O)C(=O)N[C@H](C(=O)O)c2ccccc2)C(=O)N1Cc1ccccc1CS(=O)(=O)c1ccccc1 (mixture of isomers) [Example 10]
45 µM | N=C(N)NCCC[C@H]1C(=O)N(CC(=O)N[C@@H](CC(=O)O)C(=O)N[C@H](C(=O)O)c2ccccc2)C(=O)N1Cc1ccccc1 [Example 38, ((S)-4-(3-Guanidinopropyl)-3-benzyl-2,5-dioxoimidazolidin-1-yl)acetyl-L-aspartyl-L-phenylglycine]
32 µM | CC1(c2ccc(C(=N)N)cc2)C(=O)N(CC(=O)N[C@@H](CC(=O)O)C(=O)N[C@H](C(=O)O)c2ccccc2)C(=O)N1Cc1ccc(C(F)(F)F)cc1 (mixture of isomers) [Example 15, ((R,S)-4-(4-(Amino-imino-methyl)phenyl)-3-(4-trifluoromethylbenzyl)-4-methyl-2,5-dioxoimidazolidin-1-yl)acetyl-L-aspartyl-L-phenylglycine]
25 µM | CC1(c2ccc(C(=N)N)cc2)C(=O)N(CC(=O)NC(CC(=O)O)c2ccc3c(c2)OCCO3)C(=O)N1Cc1ccccc1 [Example 58, (R,S)-3-(((R,S)-4-(4(Amino-imino-methyl)phenyl)-3-benzyl-4-methyl-2,5-dioxoimidazolidin-1-yl)acetylamino)-3-(3,4-ethylenedioxyphenyl)propionic acid]
15 µM | CC(C)(C)c1ccc(CN2C(=O)N(CC(=O)N[C@@H](CC(=O)O)C(=O)N[C@H](C(=O)O)c3ccccc3)C(=O)C2(C)c2ccc(C(=N)N)cc2)cc1 (mixture of isomers) [Example 5, ((R,S)-4-(4-(Amino-imino-methyl)phenyl)-3-(4-tert-butyl-benzyl)-4-methyl-2,5-dioxoimidazolidin-1-yl)acetyl-L-aspartyl-L-phenylglycine]
6.8 µM | CC1(c2ccc(C(=N)N)cc2)C(=O)N(CC(=O)NC[C@H](NC(=O)OCc2ccccc2)C(=O)O)C(=O)N1Cc1ccccc1 (stereo partly drawn) [Example 46, (S)-3-(((R,S)-4-(4-(Amino-imino-methyl)phenyl)-3-benzyl-4-methyl-2,5-dioxoimidazolidin-1-yl)acetylamino)-2-benzyloxycarbonylaminopropionic acid]
3.7 µM | CC1(c2ccc(C(=N)N)cc2)C(=O)N(CC(=O)N[C@@H](CC(=O)O)C(=O)N[C@H](C(=O)O)c2ccccc2)C(=O)N1Cc1cccc2ccccc12 (mixture of isomers) [Example 13, ((R,S)-4-(4-(Amino-imino-methyl)phenyl)-3-((1-naphthyl)methyl)-4-methyl-2,5-dioxoimidazolidin-1-yl)acetyl-L-aspartyl-L-phenylglycine]
2 µM | N=C(N)c1ccc(C2(Cc3ccccc3)C(=O)N(CC(=O)N[C@@H](CC(=O)O)C(=O)N[C@H](C(=O)O)c3ccccc3)C(=O)N2Cc2ccccc2)cc1 (stereo partly drawn) [Example 20, ((R,S)-4-(4-(Amino-imino-methyl)phenyl)-3,4-dibenzyl-2,5-dioxo-imidazolidin-1-yl)acetyl-L-aspartyl-L-phenylglycine]
0.5 µM | C[C@@]1(c2ccc(C(=N)N)cc2)C(=O)N(CC(=O)N[C@@H](CC(=O)O)C(=O)N[C@H](C(=O)O)c2ccccc2)C(=O)N1Cc1ccc2ccccc2c1 [Example 9, ((R,S)-4-(4-(Amino-imino-methyl)phenyl)-3-((2-naphthyl)methyl)-4-methyl-2,5-dioxoimidazolidin-1-yl)acetyl-L-aspartyl-L-phenylglycine]
0.37 µM | CC(C(=O)N[C@@H](CC(=O)O)C(=O)N[C@H](C(=O)O)c1ccccc1)N1C(=O)N(Cc2ccccc2)C(C)(c2ccc(C(=N)N)cc2)C1=O (stereo partly drawn) [Example 62, ((R,S)-2-((R,S)-4-(4-(Amino-imino-methyl)phenyl)-3-benzyl-4-methyl-2,5-dioxoimidazolidin-1-yl)-2-methylacetyl)-L-aspartyl-L-phenylglycine]
0.22 µM | C[C@]1(c2ccc(C(=N)N)cc2)C(=O)N(CC(=O)N[C@@H](CC(=O)O)C(=O)N[C@H](C(=O)O)c2ccccc2)C(=O)N1Cc1ccccc1 [Example 63]

Reference: patent US20040220148A1, “5-Membered ring heterocycles as inhibitors of leucocyte adhesion and as VLA-4 antagonists” (Aventis Pharma Deutschland GmbH, priority 1996, published 2004)
